Series [1] relates to T2 or B16HHD tumour cells. Description: 51Cr-release assay, vim 65 cit CTL lines against HLA-A2 positive target cells. It is filed as cell-based. Particulars: peptide pulsed HLA-A2 positive target cells. The procedure: (§1) Target cells were labelled for 1 hr with 1.85 MBq sodium (^51Cr) chromate (Amersham, Essex, UK) with or without 10 μg/ml peptide. Post incubation they were washed 3 times in RPMI. Targets 5×10^3/well of a 96-well V-bottomed plates were set up and co incubated with different densities of effector cells in a final volume of 200 μl of RPMI, 10% FCS (Sigma), 20 mM HEPES buffer, 2 mM L-glutamine, 100 units/ml penicillin and 100 μg/ml streptomycin. After 20 hrs at 37° C., 50 μl of supernatants were removed from each well and transferred to a Lumaplate (Packard, Rigaweg, the Netherlands). Plates were read on a Topcount Microplate Scintillation Counter (Packard). Percentage specific lysis was calculated using the following formula: specific lysis=100×[(experimental release−spontaneous release)/(maximum release−spontaneous release)].

Series [2] deals with splenocytes. Description: Ex vivo elispot assay on splenocytes of immunised HLA-DR4 transgenic mice. It is filed as in vivo. Conditions: for IFNγ elispot response to citrullinated peptide, mean / IFNγ elispot response to wild type peptide, mean: day 14 splenocytes; for EC50: 25 μg peptide day 0, increasing peptide concentration. Here is the method: (§2) C57BL/6 mice (Charles River, UK), HLA-DR4 mice (Taconic, USA), HHDII mice (Pasteur institute, France) and HHDII/DRI mice (Pasteur institute, France) were used, aged between 8 and 12 weeks, and cared for by the staff at Nottingham Trent University. All work was carried out under a Home Office project license. Peptides were dissolved in 10% Dimethylformamide to 1 mg/ml and then emulsified (a series of dilutions) with different adjuvants: CpG and MPLA 6 μg/mouse of each (Invivogen, UK), Incomplete Freund's […] (Sigma, UK), and GMCSF 10 μg/mouse (Peprotech, UK). Peptides (25 μg/mouse) were injected subcutaneously at the base of the tail. DNA (1 μg/mouse) was coated onto 1.0 μm gold particles (BioRad, Hemel Hempstead, UK) using the manufacturer's instructions and administered intradermally by genegun (BioRad). Homspera (10 nM/mouse) (PeptideSynthetics, UK) was injected intradermally with genegun immunisation. Mice were immunized at either day 0 for peptide immunisation or days, 0, 7, and 14 for peptide and genegun immunisation. Spleens were removed for analysis at day 14 for peptide and day 20 for peptide or genegun immunisation unless stated otherwise. 400 μg Anti-CD25 antibody (PC61) was administered i.p. in saline 3 days prior to the immunisation. 200 μg Anti-CTLA-4 antibody (UC 10-4F, 10-11) was administered i.p. in saline at day 7 and 14 with either genegun or peptide immunisation.
(§3) Elispot assays were performed using murine IFNγ, IL-17 and IL-10 capture and detection reagents according to the manufacturer's instructions (Mabtech, Sweden). In brief, anti-IFNγ, IL-17 and IL-10 antibodies were coated onto wells of 96-well Immobilin-P plate. Synthetic peptides (at a variety of concentrations) and 5×10^5 per well splenocytes were added to the wells of the plate in triplicate. Tumour target cells were added where relevant at 5×10^4/well in triplicate and plates incubated for 40 hrs at 37° C. After incubation, captured IFNγ, […], IL-17 and IL-10 were detected by biotinylated anti-IFNγ, IL-17 and IL-10 antibodies and developed with a strepatavidin alkaline phosphatase and chromogenic substrate. Spots were analysed and counted using an automated plate reader (Cellular Technologies Ltd). Functional avidity was calculated as the concentration mediating 50% maximal effector function using a graph of effector function versus peptide concentration.

For the next series, the system named is EL4 HHD cells. As to the kind of experiment: IFNg elispot of splenocytes against EL4 HHD tumour target cells. It is filed as cell-based, HLA-A2/DR1 transgenic mice. Conditions: EL4 HHD over HLA mismatched B16 cells. Here is the method:
as §3

Series [3] has as its system splenocytes. Description: Ex vivo elispot assay on splenocytes of immunised HLA-DR1 / HLA-A2/DR1 (HHDII/DR1) transgenic mice. It is filed as in vivo. Particulars: stimulation with citrullinated peptide; HLA-A2/DR1 mice.
Another series concerns PBMC. As to the kind of experiment: Proliferation assay of PBMC from cancer patients. The class given is cell-based, human. Conditions: PBMC stimulated with 10 μg/ml peptide for 4, 7 and 11 days, 3H-thymidine. The procedure: PBMC were isolated from freshly drawn heparinised blood by Ficol-Hypaque (Sigma) gradient centrifugation. PBMC (1.5×10^6 cells/well) were stimulated with single peptides (final concentration 10 μg/ml) in RPMI containing 5% pooled autologous human serum, 2 mM glutamine, 20 mM HEPES and Penicillin-streptomycin (1%) in a final volume of 2 ml. Stimulation with purified protein derivative, PPD (final concentration 10 μg/ml) served as a positive control for the proliferative capacity of PBMC. As a negative control PBMC were incubated with medium alone. The PBMC were cultured at 37° C. in an atmosphere of 5% CO2 for 4, 7 and 11 days. To assess proliferation at these times points 100 μl in triplicate from each culture was aliquoted into a round bottom well of a 96 well plate and ^3H-thymidine added (0.0185 MBq/well) and incubated at 37° C. for a further 8 hours. The cultures were harvested onto unifilter plates and incorporation of ^3H-thymidine was determined by β-scintillation counting. The results were assessed by calculating the stimulation index (SI) as the ratio of the mean of counts per minute (cpm) of epitope-stimulated to the mean of unstimulated cultures. The proliferative assay was considered positive when SI >2.5.

For series [4], the system named is splenocytes. Description: Ex vivo elispot assay on splenocytes of immunised HLA-DR1 / HLA-A2/DR1 (HHDII/DR1) transgenic mice. The class given is in vivo. Here is the method: as §2, §3
The next series deals with Granzyme B. Description: Granzyme B ELISA on supernatant of ex vivo IFNγ elispot. The class given is cell-based, HLA-DR4 transgenic mice. Particulars: immunised days 0, 7, 14 in CPG and MPLA. The source says: Supernatant from ex vivo IFNγ elispot assays on splenocytes was removed after 40 hrs and assessed for Granzyme B by elisa assay (R&D systems) according to manufacturer's instructions.
(ELISA stands for enzyme-linked immunosorbent assay.)

The subject of another series is B16F1 cells. Description: Tumour challenge with B16 tumour lacking HLA-DR0401. The class given is in vivo, HLA-DR4 transgenic mice. Particulars: B16 tumour lacking expression of HLA-DR0401; 25 μg peptide in CpG and MPLA. The procedure: (§4) For tumour challenge experiments mice were challenged with 2.5×10^4 B16 HHDII NYESO/TAP2 siβ2m 1F10 cells or B16 DR4 2E7 cells subcutaneously on the right flank 3 days prior to primary immunisation and then were immunised as above. Anti-IFNγ antibody (300 μg/dose), anti-IL-17 antibody (200 μg/dose) and anti-HLA-DR antibody (300 μg/dose) were administered i.p. in saline at days 2, 7, 11 and 14 post tumour implant. Anti-CD4 antibody (500 μg/dose) was administered i.p.in saline at days 2 and 8 post tumour implant. Tumour growth was monitored at 3-4 days intervals and mice were humanely euthanized once tumour reached ≥10 mm in diameter.

A further series deals with B16F1-DR4 cells. Description: Tumour challenge with B16F1-DR4 cells. The class given is in vivo, HLA-DR4 transgenic mice. Here is the method:
as §4

In another series the target is HLA-DR0401 (Homo sapiens, UniProt P01903+P01911, A100K/A169T/F76Y/I96L/K127E/L162R/M171V/N62H/P40V/Q125Y/R42H/S133A/S149N/S66Y/V115G/V209L/W38E). As to the kind of experiment: HLADR0401 competitive binding assay against biotinylated HA306-318. Particulars: FIG. 12. The source says:
In brief, peptides of interest were mixed with a predetermined concentration biotinylated HA306-318 reference peptide at increasing concentrations and added to plate bound HLA DR0401. Amounts of biotinylated reference peptide binding to HLA DR0401 was quantified using streptavidin linked enzyme step followed by detection with chromogenic substrate. Maximal binding is taken as the value achieved by biotinylated HA 306-318 peptide alone. As a positive control unlabelled HA 306-318 peptide was used to compete with the biotinylated version.

The subject of another series is T2 DR4 tumour cells. Description: 51Cr-release assay, CTL lines from immunised mice against T2 DR4 cells. The class given is cell-based. Here is the method:
as §1

In series [5] the test system is splenocytes. Description: Ex vivo elispot assay on splenocytes of immunised C57B1 mice. Particulars: C57B1 mice. The class given is in vivo, C57BL/6 mice. The procedure: as §2, §3
[6] abbreviates: 25 μg peptide with CpG and MPLA day 0, day 14, peptide 5 μM.
Setting [7] is: 25 μg peptide with CpG and MPLA day 0, peptide 5 μM.
The mark [8] stands for this setting: 25 μg citrullinated peptide day 0, day 14, HLA-A2/DR1 mice.

Read-outs that look alike come from different tables or passages of the source. Square brackets hold non-standard residues; d marks the D form. Ends that are not written are not given here. Cit = NC(=O)NCCC[C@H](N)C(=O)O

As to “SAVRLRSSVPGVR [citrullinated vim 65 peptide] (not fully specified; also: citrullinated, positions not given here)”, the “cytotoxicity (chromium release)” value in [1] is recorded as “cytotoxicity of peptide pulsed HLA-A2 positive target cells”. In the series with splenocytes [2] (setting [6]), the “IL-17 elispot response to citrullinated peptide, mean” value is listed as 550 /million splenocytes and the “IL-17 elispot response to wild type peptide, mean” value was “no responses”. In addition, in the series with splenocytes [2] (setting [7]), the “IFNγ elispot response to citrullinated peptide, mean” value is 550 /million splenocytes and the “IFNγ elispot response to wild type peptide, mean” value is “no responses”. Further, the “recognition of tumour target cells ex vivo” value with EL4 HHD cells is “good recognition of transgenic HLA-A2 engineered EL4 cell line (EL4 HHD)”. Moreover, the “phenotype of cells producing IFNγ and TNFa (intracellular cytokine staining)” value in the series on splenocytes [3] is “CD8 positive”. In addition, the “patients showing a proliferative response (SI >2.5)” value with PBMC (listed as citrullinated vim 65-77) is reported as 4/9. For the same substance, the “patients showing a proliferative response (SI >2.5)” value in the series on PBMC (listed as vim 65 cit) is recorded as “three of eight”. Besides, in the series on splenocytes [4] (setting [8]), the “IFNγ elispot response to citrullinated peptide” value is listed as “high frequency IFNγ responses”, the “IFNγ elispot response to wild type peptide” value is recorded as “some cross reactivity to the wild type peptide” and the “IL-10 elispot response to citrullinated peptide” value is listed as “Low frequency IL-10 responses”. Besides, the “IFNγ response with blockade of MHC class II” value with splenocytes [4] (L243 HLA-DR blocking antibody, HLA-A2/DR1 mice) is on record as “does not eliminate the citrullinated peptide specific response”.
For “citSYVTTSTcitTYSLGSALcitPSTS ([Cit]SYVTTST[Cit]TYSLGSAL[Cit]PSTS) [citrullinated vim 28-49]”, the “Granzyme B release upon stimulation with citrullinated peptides” value in the series on Granzyme B is given as “release of Granzyme B”. For the same substance, the EC50 in the series with splenocytes [2] (day 14, IFNγ elispot, read-out: avidity of the IFNγ response (concentration mediating 50% maximal effector function)) was 1000 nM; in the series with splenocytes [2] (day 14, IL-17 elispot, read-out: avidity of the IL-17 response (concentration mediating 50% maximal effector function)) it was 1000 nM. The “IFNγ/IL-17 response with alum or IFA” value with splenocytes [2] (25 μg peptide s.c., day 14) was “no response”. For the same substance, the “IFNγ/IL-17 responses with CpG/MPLA, GMCSF and TMX201 adjuvants” value with splenocytes [2] (25 μg peptide s.c., day 14) is recorded as “Potent IFNγ/IL-17 responses”. The “IL-10 responses to the citrullinated peptides with IFA” value with splenocytes [2] (25 μg peptide s.c., day 14) was “high frequency IL-10 responses”. Further, the IL-10 elispot responses result in the series with splenocytes [2] (25 μg peptide with CpG and MPLA day 0, day 14, against wild type and citrullinated peptides) is given as “No significant IL-10 responses”. Also, in the series on splenocytes [2] (setting [7]), the “IFNγ elispot response to citrullinated peptide, mean” value was 600 /million splenocytes. In the series with splenocytes [2] (setting [7]), the “IFNγ elispot response to wild type peptide, mean” value was 250 /million splenocytes. The “response after depletion of CD4 cells or addition of MHC class II blocking antibody” value in the series on splenocytes [2] (IFNγ elispot, L243 antibody, FIG. 15) is reported as “CD4 mediated”. In the series on splenocytes [2] (peptide immunisation, FIG. 11), the “IFNγ elispot response against vimentin 28-49 triple, double and single citrullinated peptides” value is given as “significantly stronger response”. In addition, the “tumour growth and survival” value in the series on B16F1 cells is “delayed tumour growth and enhanced survival”. Moreover, the “anti-tumour response with blockade of IFNγ in vivo” value in the series on B16F1-DR4 cells (IFNγ neutralising monoclonal antibody) is recorded as “abrogates”. The “anti-tumour response with blockade of IL-17 in vivo” value in the series with B16F1-DR4 cells (IL-17 neutralising antibody) is on record as “small effect significant influence”. In addition, the “anti-tumour response in combination with CD4 T cell depletion (anti-CD4 antibody)” value in the series with B16F1-DR4 cells (clone GK1.5) is given as “totally abrogates the anti-tumour response”. Besides, the “anti-tumour response / survival” value in the series on B16F1-DR4 cells (peptide 25 μg in CpG and MPLA s.c. or DNA via gene gun, days 4, 11, 18, versus unimmunised control) is on record as “significantly enhanced survival”. For the same substance, the “patients showing a proliferative response (SI >2.5)” value is 5/11 in the series with PBMC and “five” in the series on PBMC (listed as vim 28 cit). For the same substance, in the series with HLA-DR0401, the “binding to HLA-DR0401 (competition with HA 306-318 reference peptide)” value is recorded as “better binding to HLA-DR0401 compared to the wild type version”. The “killing of normal splenocytes” value in the series with T2 DR4 tumour cells (DR4 splenocytes) is reported as “no killing of normal splenocytes”. Moreover, the “killing of T2 tumour cells transfected with human DR4” value in the series with T2 DR4 tumour cells (targets pulsed with peptide or not) is “killed transfected targets whether they were pulsed with the appropriate peptide or not”. For the same substance, the “response after peptide immunisation” value with splenocytes [4] (HHD1/DR1 mice) and with splenocytes [5] was “failed to raise a response” each time.
